From ChEMBL document CHEMBL4130451, “Design and Synthesis of N-Aryl Phenoxyethoxy Pyridinones as Highly Selective and CNS Penetrant mGlu3 NAMs” (ACS Med Chem Lett, 2017)
Calls of active or inactive are those of the source. The rule behind the calls is not given here.

Legend:
[1] = biological target: Metabotropic glutamate receptor 3 (Rattus norvegicus) (UniProt P31422); assay: Negative allosteric modulation of rat mGlu3 receptor expressed in TREX cells coexpressing Galpha15 assessed as inhibition of glutamate induced-calcium mobilization by measuring minimum glutamate response preincubated for 2.3 mins followed by glutamate addition measured for 2.6 mins by Fluo-4 AM dye based fluorescence assay relative to glutamate; assay type: functional, cell-based
[2] = biological target: Cytochrome P450 1A2 (Homo sapiens, UniProt P05177); assay: Inhibition of CYP1A2 in human liver microsomes using phenacetin as substrate after 15 mins in presence of NADPH by LC/MS/MS analysis; assay type: ADME
Chain of Cytochrome P450 1A2 (P05177 whole entry): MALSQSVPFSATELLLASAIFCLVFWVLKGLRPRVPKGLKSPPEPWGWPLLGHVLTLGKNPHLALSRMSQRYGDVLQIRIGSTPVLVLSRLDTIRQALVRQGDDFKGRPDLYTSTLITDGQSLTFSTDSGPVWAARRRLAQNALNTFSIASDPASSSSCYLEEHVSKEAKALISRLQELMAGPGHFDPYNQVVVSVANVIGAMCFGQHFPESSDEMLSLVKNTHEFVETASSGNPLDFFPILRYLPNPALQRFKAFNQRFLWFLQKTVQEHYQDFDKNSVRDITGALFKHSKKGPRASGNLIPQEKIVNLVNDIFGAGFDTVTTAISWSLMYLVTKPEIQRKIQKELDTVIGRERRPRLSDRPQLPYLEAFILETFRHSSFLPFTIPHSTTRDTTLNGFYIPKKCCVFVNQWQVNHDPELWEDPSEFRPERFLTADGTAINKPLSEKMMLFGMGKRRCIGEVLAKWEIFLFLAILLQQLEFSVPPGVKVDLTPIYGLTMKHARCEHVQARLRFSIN

[3] = Fraction unbound in rat plasma at 5 uM after 4 hrs by equilibrium dialysis based LC/MS/MS analysis; assay type: ADME, cell-free
[4] = Fraction unbound in human plasma at 5 uM after 4 hrs by equilibrium dialysis based LC/MS/MS analysis; assay type: ADME, cell-free
[5] = biological target: Metabotropic glutamate receptor 7 (Rattus norvegicus) (UniProt P35400); assay: Negative allosteric modulation of rat mGlu7 receptor expressed in HEK/GIRK cells assessed as inhibition of L-AP4 induced-calcium mobilization preincubated for 2.3 mins followed by L-AP4 addition measured for 2.6 mins by Fluo-4 AM dye based fluorescence assay; assay type: functional, cell-based
Chain of Metabotropic glutamate receptor 7 (Rattus norvegicus) (P35400 whole entry): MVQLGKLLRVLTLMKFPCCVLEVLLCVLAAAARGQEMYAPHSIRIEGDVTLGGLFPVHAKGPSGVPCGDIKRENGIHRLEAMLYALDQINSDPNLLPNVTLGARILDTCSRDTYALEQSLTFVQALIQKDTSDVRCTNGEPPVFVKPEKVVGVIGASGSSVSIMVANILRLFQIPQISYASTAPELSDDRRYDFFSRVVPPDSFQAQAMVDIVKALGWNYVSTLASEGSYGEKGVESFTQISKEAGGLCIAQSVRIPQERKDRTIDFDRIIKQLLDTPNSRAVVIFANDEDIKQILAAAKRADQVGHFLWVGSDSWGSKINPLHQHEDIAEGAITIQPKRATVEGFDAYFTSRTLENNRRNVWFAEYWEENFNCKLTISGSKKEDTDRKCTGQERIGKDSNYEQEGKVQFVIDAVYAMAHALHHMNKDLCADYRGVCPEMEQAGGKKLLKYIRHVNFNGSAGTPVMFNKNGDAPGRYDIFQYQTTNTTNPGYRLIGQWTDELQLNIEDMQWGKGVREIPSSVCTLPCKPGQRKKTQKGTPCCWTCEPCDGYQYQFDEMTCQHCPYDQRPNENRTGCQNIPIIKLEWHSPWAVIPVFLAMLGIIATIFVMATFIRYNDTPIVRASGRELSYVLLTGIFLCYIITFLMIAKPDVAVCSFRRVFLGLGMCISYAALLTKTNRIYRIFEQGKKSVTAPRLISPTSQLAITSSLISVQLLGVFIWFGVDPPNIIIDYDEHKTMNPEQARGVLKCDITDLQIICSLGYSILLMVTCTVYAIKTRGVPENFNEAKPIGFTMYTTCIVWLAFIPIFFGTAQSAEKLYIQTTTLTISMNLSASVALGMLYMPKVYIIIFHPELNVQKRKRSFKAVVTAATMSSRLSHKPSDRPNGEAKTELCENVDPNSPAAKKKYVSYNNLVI

[6] = Brain to plasma partition coefficient, Kp of the compound in mouse; assay type: ADME
[7] = system: Mus musculus; assay: Antidepressant activity in CD-1 mouse assessed as reduction in immobility time at 3 mg/kg administered ip 15 mins prior to test measured for 6 mins by tail suspension test; assay type: functional, organism-based
[8] = system: Mus musculus; assay: Antidepressant activity in CD-1 mouse assessed as reduction in immobility time administered ip 15 mins prior to test measured for 6 mins by tail suspension test; assay type: functional; conditions: CD-1, ip, read-out: MED
[9] = Unbound brain to plasma concentration ratio in Harlan CD-1 mouse at 3 mg/kg, ip by LC/MS-MS analysis; assay type: ADME, organism-based; conditions: read-out: K(p,uu,brain)
[10] = Drug uptake in Harlan CD-1 mouse brain at 3 mg/kg, ip by LC/MS-MS analysis; assay type: ADME, organism-based; conditions: in vivo, read-out: Drug uptake
[11] = biological target: Adenosine receptor A1 (Homo sapiens) (UniProt P30542); assay: Inhibition of human adenosine A1 receptor at 10 uM relative to control
[12] = biological target: Adenosine receptor A3 (Homo sapiens) (UniProt P0DMS8); assay: Inhibition of human adenosine A3 receptor at 10 uM relative to control
[13] = biological target: Alpha-1A adrenergic receptor (Rattus norvegicus) (UniProt P43140); assay: Inhibition of rat adrenergic alpha 1A receptor at 10 uM relative to control
Chain of Alpha-1A adrenergic receptor (Rattus norvegicus) (P43140 whole entry): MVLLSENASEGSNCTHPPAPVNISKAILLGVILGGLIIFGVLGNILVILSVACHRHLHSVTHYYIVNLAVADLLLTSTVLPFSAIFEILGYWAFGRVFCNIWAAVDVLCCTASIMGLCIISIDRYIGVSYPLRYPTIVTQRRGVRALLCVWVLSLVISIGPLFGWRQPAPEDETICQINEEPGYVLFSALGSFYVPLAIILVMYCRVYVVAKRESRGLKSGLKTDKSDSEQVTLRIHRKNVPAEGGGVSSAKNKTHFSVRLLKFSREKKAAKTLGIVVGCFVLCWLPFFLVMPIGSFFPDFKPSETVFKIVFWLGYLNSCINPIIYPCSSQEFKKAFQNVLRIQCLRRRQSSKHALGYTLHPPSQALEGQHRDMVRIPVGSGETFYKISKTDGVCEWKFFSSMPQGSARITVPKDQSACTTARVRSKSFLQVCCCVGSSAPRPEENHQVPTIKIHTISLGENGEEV

[14] = biological target: Alpha-1B adrenergic receptor (Rattus norvegicus) (UniProt P15823); assay: Inhibition of rat adrenergic alpha 1B receptor at 10 uM relative to control
[15] = biological target: Alpha-1D adrenergic receptor (Homo sapiens) (UniProt P25100); assay: Inhibition of human adrenergic alpha 1D receptor at 10 uM relative to control
Chain of Alpha-1D adrenergic receptor (Homo sapiens) (P25100 whole entry): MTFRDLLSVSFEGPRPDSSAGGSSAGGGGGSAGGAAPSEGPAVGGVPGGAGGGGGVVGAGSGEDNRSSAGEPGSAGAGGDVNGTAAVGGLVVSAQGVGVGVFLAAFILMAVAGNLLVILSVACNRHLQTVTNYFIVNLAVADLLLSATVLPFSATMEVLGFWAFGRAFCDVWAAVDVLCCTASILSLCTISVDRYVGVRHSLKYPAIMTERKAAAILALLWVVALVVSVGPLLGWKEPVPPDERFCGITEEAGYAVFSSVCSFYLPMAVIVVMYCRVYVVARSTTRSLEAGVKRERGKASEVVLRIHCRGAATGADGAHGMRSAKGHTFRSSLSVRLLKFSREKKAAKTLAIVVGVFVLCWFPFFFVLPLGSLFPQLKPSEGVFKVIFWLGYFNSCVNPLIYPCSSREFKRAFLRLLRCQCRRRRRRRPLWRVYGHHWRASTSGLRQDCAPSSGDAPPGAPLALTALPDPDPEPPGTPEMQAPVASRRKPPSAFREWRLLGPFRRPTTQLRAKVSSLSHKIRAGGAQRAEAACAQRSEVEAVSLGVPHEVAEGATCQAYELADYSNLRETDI

[16] = biological target: Alpha-2A adrenergic receptor (Homo sapiens) (UniProt P08913); assay: Inhibition of human adrenergic alpha 2A receptor at 10 uM relative to control
[17] = biological target: Androgen receptor (Rattus norvegicus) (UniProt P15207); assay: Inhibition of rat androgen receptor at 10 uM relative to control
[18] = biological target: B2 bradykinin receptor (Homo sapiens) (UniProt P30411); assay: Inhibition of human bradykinin B2 receptor at 10 uM relative to control
Chain of B2 bradykinin receptor (Homo sapiens) (P30411 whole entry): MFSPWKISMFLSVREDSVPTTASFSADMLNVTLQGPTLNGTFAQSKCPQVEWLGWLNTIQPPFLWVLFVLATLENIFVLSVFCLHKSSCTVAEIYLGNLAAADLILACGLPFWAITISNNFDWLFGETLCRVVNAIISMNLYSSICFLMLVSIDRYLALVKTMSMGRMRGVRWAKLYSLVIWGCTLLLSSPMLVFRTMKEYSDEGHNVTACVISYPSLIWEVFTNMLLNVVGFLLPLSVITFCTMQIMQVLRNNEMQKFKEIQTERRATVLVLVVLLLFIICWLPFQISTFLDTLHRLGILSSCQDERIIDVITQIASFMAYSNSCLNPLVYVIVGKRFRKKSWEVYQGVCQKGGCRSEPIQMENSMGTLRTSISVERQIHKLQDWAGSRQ

[19] = biological target: L-type calcium channel, benzodiazepine site (Rattus norvegicus, UniProt P22002+P27732+Q02485); assay: Inhibition of rat L-type calcium channel benzodiazepine site at 10 uM relative to control; assay type: protein assay
[20] = biological target: L-type calcium channel, dihydropyridine site (Rattus norvegicus, UniProt P22002+P27732+Q02485); assay: Inhibition of rat L-type calcium channel dihydropyridine site at 10 uM relative to control; assay type: protein assay
[21] = species on record: Rattus norvegicus; assay: Inhibition of rat N-type calcium channel […] at 10 uM relative to control
[22] = biological target: D(1A) dopamine receptor (Homo sapiens) (UniProt P21728); assay: Inhibition of human dopamine D1 receptor at 10 uM relative to control
[23] = biological target: D(2) dopamine receptor (Homo sapiens) (UniProt P14416); assay: Inhibition of human dopamine D2S receptor at 10 uM relative to control
Chain of D(2) dopamine receptor (Homo sapiens) (P14416 whole entry): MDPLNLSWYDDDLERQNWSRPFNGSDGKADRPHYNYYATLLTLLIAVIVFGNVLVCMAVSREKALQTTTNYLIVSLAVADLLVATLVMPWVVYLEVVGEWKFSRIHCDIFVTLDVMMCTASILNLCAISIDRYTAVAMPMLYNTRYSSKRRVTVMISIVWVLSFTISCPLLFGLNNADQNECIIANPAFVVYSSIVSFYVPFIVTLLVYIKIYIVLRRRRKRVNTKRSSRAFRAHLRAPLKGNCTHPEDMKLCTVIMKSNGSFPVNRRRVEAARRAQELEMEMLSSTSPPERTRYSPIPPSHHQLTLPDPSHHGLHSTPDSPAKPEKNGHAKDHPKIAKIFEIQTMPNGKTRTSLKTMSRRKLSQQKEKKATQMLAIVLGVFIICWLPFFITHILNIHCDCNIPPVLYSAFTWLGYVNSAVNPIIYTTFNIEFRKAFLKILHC

[24] = biological target: D(3) dopamine receptor (Homo sapiens) (UniProt P35462); assay: Inhibition of human dopamine D3 receptor at 10 uM relative to control
Chain of D(3) dopamine receptor (Homo sapiens) (P35462 whole entry): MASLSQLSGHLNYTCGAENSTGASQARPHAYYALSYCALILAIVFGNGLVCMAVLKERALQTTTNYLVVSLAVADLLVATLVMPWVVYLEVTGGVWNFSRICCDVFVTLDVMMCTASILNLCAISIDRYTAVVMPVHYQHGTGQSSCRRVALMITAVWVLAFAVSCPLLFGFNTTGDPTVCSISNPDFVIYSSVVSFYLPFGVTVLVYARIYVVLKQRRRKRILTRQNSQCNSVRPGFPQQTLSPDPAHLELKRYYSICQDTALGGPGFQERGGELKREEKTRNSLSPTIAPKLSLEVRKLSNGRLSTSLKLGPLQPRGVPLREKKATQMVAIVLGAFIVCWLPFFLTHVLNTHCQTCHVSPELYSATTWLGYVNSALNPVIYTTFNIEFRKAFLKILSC

[25] = species on record: Homo sapiens; assay: Inhibition of human dopamine D4.2 receptor at 10 uM relative to control
[26] = biological target: Endothelin-1 receptor (Homo sapiens) (UniProt P25101); assay: Inhibition of human endothelin A receptor at 10 uM relative to control
Chain of Endothelin-1 receptor (Homo sapiens) (P25101 whole entry): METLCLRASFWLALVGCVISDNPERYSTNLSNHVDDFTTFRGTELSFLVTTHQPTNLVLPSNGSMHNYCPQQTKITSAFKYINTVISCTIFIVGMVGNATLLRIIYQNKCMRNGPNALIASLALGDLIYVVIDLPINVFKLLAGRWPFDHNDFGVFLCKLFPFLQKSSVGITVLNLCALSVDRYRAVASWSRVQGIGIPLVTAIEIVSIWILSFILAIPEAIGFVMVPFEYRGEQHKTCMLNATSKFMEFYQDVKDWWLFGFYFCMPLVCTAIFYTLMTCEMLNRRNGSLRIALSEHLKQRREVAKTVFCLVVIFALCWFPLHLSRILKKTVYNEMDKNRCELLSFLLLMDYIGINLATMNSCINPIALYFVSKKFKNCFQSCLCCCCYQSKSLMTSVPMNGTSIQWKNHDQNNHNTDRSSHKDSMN

[27] = biological target: Epidermal growth factor receptor (Homo sapiens) (UniProt P00533); assay: Inhibition of human EGF receptor at 10 uM relative to control
[28] = biological target: Estrogen receptor (Homo sapiens) (UniProt P03372); assay: Inhibition of human ERalpha receptor at 10 uM relative to control
[29] = biological target: Gamma-aminobutyric acid type B receptor subunit 1 (Homo sapiens) (UniProt Q9UBS5); assay: Inhibition of human GABA-B1A receptor at 10 uM relative to control
[30] = species on record: Rattus norvegicus; assay: Inhibition of rat kainate glutamate receptor at 10 uM relative to control
[31] = biological target: T1, Glutamate NMDA receptor (Rattus norvegicus) (UniProt P35439+Q00959+Q00960+Q00961+Q62645+Q8VHN2+Q9R1M7); assay: Inhibition of rat glutamate NMDA receptor glycine binding site at 10 uM relative to control; assay type: protein-complex assay
[32] = biological target: T1, Glutamate NMDA receptor (Rattus norvegicus); assay: Inhibition of rat glutamate NMDA receptor phencyclidine binding site at 10 uM relative to control; assay type: protein-complex assay
[33] = biological target: Histamine H1 receptor (Homo sapiens) (UniProt P35367); assay: Inhibition of human histamine H1 receptor at 10 uM relative to control
[34] = species on record: Homo sapiens; assay: Inhibition of human nicotinic acetylcholine receptor at 10 uM relative to control
[35] = biological target: Kappa-type opioid receptor (Homo sapiens) (UniProt P41145); assay: Inhibition of human kappa opioid receptor at 10 uM relative to control
[36] = biological target: Mu-type opioid receptor (Homo sapiens) (UniProt P35372); assay: Inhibition of human mu opioid receptor at 10 uM relative to control
Chain of Mu-type opioid receptor (Homo sapiens) (P35372 whole entry): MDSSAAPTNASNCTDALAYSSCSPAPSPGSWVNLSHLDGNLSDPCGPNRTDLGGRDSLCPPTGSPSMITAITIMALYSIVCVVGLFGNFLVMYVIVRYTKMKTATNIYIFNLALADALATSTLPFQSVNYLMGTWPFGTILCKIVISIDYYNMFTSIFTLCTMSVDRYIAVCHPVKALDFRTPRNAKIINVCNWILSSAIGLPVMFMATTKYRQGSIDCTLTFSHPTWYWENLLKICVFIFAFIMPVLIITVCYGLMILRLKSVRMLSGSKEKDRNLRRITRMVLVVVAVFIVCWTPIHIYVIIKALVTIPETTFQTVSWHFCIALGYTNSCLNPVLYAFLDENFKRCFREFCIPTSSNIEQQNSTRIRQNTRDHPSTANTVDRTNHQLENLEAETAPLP

[37] = biological target: Platelet-activating factor receptor (Homo sapiens) (UniProt P25105); assay: Inhibition of human platelet activating factor receptor at 10 uM relative to control
Chain of Platelet-activating factor receptor (Homo sapiens) (P25105 whole entry): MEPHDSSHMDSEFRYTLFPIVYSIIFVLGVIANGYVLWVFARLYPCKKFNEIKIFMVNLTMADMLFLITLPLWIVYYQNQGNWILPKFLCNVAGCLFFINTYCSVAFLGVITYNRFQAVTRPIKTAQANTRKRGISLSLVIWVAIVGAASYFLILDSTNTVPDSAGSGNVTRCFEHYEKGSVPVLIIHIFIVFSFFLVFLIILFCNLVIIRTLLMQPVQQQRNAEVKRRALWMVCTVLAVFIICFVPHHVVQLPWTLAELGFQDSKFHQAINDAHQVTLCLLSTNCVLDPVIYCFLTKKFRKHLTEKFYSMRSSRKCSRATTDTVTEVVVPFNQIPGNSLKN

[38] = species on record: Mesocricetus auratus; assay: Inhibition of syrian hamster KATP at 10 uM relative to control
[39] = biological target: hERG (KCNH2) (Homo sapiens, UniProt Q12809); assay: Inhibition of human ERG at 10 uM relative to control
[40] = species on record: Oryctolagus cuniculus; assay: Inhibition of rabbit P2X receptor at 10 uM relative to control
[41] = species on record: Rattus norvegicus; assay: Inhibition of rat rolipram binding site at 10 uM relative to control
[42] = biological target: Substance-P receptor (Homo sapiens) (UniProt P25103); assay: Inhibition of human tachykinin NK1 receptor at 10 uM relative to control
[43] = biological target: Sodium-dependent noradrenaline transporter (Homo sapiens) (UniProt P23975); assay: Inhibition of human NET at 10 uM relative to control

For `C[C@@H](COc1ccn(-c2ccc(F)cc2)c(=O)c1)Oc1ccccc1`, which Emin [1] is on record?
Its Emin is 3.33%.

And the IC50 [2]?
The IC50 was over 30 µM.

What about the fraction unbound at 4 h, 5 µM [3] of the same compound?
Its fraction unbound at 4 h, 5 µM is 0.18.

And the fraction unbound at 4 h, 5 µM [4]?
Its fraction unbound at 4 h, 5 µM is 0.18.

What about the inhibition [5] of the same compound?
The inhibition was “inactive”.

And the Kp [6]?
Its Kp is 1.17.

And the Activity [7]?
The Activity was “Active”.

And the minimal effective dose [8]?
The minimal effective dose was 3 mg/kg.

What about the Kp uu [9] of the same compound?
Its Kp uu is 0.27.

And the concentration [10]?
The concentration was 1200 nM.

And the inhibition [11]?
Its inhibition is over 50%.

And the inhibition [12]?
Its inhibition is over 50%.

And the inhibition [13]?
The inhibition was over 50%.

What about the inhibition [14] of the same compound?
The inhibition was over 50%.

What about the inhibition [15] of the same compound?
Its inhibition is over 50%.

And the inhibition [16]?
Its inhibition is over 50%.

And the inhibition [17]?
The inhibition was over 50%.

And the inhibition [18]?
Its inhibition is over 50%.

What about the inhibition at 10 µM [19] of the same compound?
The inhibition at 10 µM was over 50%.

What about the inhibition at 10 µM [20] of the same compound?
The inhibition at 10 µM was over 50%.

What about the inhibition [21] of the same compound?
The inhibition was over 50%.

What about the inhibition [22] of the same compound?
The inhibition was over 50%.

And the inhibition [23]?
Its inhibition is over 50%.

And the inhibition [24]?
Its inhibition is over 50%.

And the inhibition [25]?
The inhibition was over 50%.

What about the inhibition [26] of the same compound?
The inhibition was over 50%.

What about the inhibition [27] of the same compound?
Its inhibition is over 50%.

What about the inhibition [28] of the same compound?
Its inhibition is over 50%.

What about the inhibition [29] of the same compound?
The inhibition was over 50%.

What about the inhibition [30] of the same compound?
The inhibition was over 50%.

And the inhibition [31]?
Its inhibition is over 50%.

What about the inhibition [32] of the same compound?
The inhibition was over 50%.

What about the inhibition [33] of the same compound?
The inhibition was over 50%.

What about the inhibition [34] of the same compound?
Its inhibition is over 50%.

And the inhibition [35]?
Its inhibition is over 50%.

What about the inhibition [36] of the same compound?
The inhibition was over 50%.

What about the inhibition [37] of the same compound?
The inhibition was over 50%.

And the inhibition [38]?
Its inhibition is over 50%.

What about the inhibition at 10 µM [39] of the same compound?
Its inhibition at 10 µM is over 50%.

And the inhibition [40]?
The inhibition was over 50%.

What about the inhibition [41] of the same compound?
The inhibition was over 50%.

What about the inhibition [42] of the same compound?
Its inhibition is over 50%.

What about the inhibition [43] of the same compound?
The inhibition was over 50%.
